Test results taken from paper PMC8041284, “Tunable Methacrylamides for Covalent Ligand Directed Release Chemistry” (Journal of the American Chemical Society, 2021).
Read-outs that look alike come from different tables or passages of the source.

Molecular target: BTK (Homo sapiens, UniProt Q06187)
Experiment: biochemical
[1] = read-out: BTK inhibition (%), 0.75 uM BTK, […] probe 3l, 15 min preincubation

BTK, sequence (Q06187 402-655 limits assumed): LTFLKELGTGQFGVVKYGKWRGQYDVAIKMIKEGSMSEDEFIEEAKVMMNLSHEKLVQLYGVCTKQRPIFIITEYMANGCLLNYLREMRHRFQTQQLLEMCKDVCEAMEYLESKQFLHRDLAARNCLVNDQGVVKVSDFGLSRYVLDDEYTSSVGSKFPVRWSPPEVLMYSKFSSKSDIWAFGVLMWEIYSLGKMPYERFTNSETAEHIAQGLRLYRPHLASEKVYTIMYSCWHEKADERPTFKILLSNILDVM

| SMILES | inhibition at 10 µM [1] | inhibition at 10 µM (read-out: BTK inhibition (%)) |
| --- | --- | --- |
| Cc1nc2n(c(=O)c1CCN1CCC(c3noc4cc(F)ccc34)CC1)CCCC2O (stereo not drawn) [PCM-0065046] | 6% |  |
| Cc1cnc(C(=O)N[C@H]2CCCCC/C=C\[C@@H]3C[C@@]3(C(=O)NS(=O)(=O)C3CC3)NC(=O)[C@@H]3C[C@@H](Oc4nc5ccccc5c5ccccc45)CN3C2=O)cn1 [PCM-0216057] | 53.3% |  |
| COc1ccc2cccc(CCNC(C)=O)c2c1 [PCM-0065343] | -16.3% |  |
| Cc1ccc(CN(CC(O)COc2cccc3[nH]ccc23)C(C)(C)C)cc1 (stereo not drawn) [PCM-0216011] | 6.9% |  |
| COc1cc(F)c(F)c(Nc2ccc(I)cc2F)c1NS(=O)(=O)C1(C[C@H](O)CO)CC1 [PCM-0214795] | 36.6% |  |
| CC(C)C[C@H](NC(=O)CNC(=O)c1cc(Cl)ccc1Cl)B1OC(=O)CC(CC(=O)O)(C(=O)O)O1 (stereo partly drawn) [PCM-0095225] | -2.1% |  |
| CCn1c(=O)c2c(nc(/C=C/c3ccc(OC)c(OC)c3)n2C)n(CC)c1=O [PCM-0095373] | -25.7% |  |
| O=C(C[S+]([O-])C(c1ccccc1)c1ccccc1)NO (stereo not drawn) [PCM-0216068] |  | -2.3% |
| CC1=CC(=O)CC(C)(C)[C@@]1(O)/C=C/C(C)=C\C(=O)O [PCM-0215371] | 9.3% |  |
| COc1cc2c(Nc3ccc(Br)cc3F)ncnc2cc1OCC1CCN(C)CC1 [PCM-0094968] | 25.5% |  |
| Cc1ccccc1N1C(=O)c2cc(S(N)(=O)=O)c(Cl)cc2NC1C (stereo not drawn) [PCM-0065217] | -4.7% |  |
| CC[C@H]1[C@@H](O)[C@@H]2[C@H](CC[C@]3(C)[C@@H]([C@H](C)CCC(=O)O)CC[C@@H]23)[C@@]2(C)CC[C@@H](O)C[C@@H]12 [PCM-0215390] | 2.3% |  |
| C[C@H]1[C@H](C)CC[C@]2(C(=O)O[C@@H]3O[C@H](CO[C@@H]4O[C@H](CO)[C@@H](O[C@@H]5O[C@@H](C)[C@H](O)[C@@H](O)[C@H]5O)[C@H](O)[C@H]4O)[C@@H](O)[C@H](O)[C@H]3O)CC[C@]3(C)C(=CC[C@@H]4[C@@]5(C)C[C@@H](O)[C@H](O)[C@@](C)(CO)[C@@H]5[C@H](O)C[C@]43C)[C@H]12 [PCM-0215102] | 10.1% |  |
| Cc1cccc2c3c(ccc12)C1=C(C(=O)C3=O)[C@@H](C)CO1 [PCM-0216343] | 22.4% |  |
| NC[C@@H]1O[C@H](O[C@H]2[C@@H](O)[C@H](O[C@@H]3[C@@H](O)[C@H](N)C[C@H](N)[C@H]3O[C@H]3O[C@H](CN)[C@@H](O)[C@H](O)[C@H]3N)O[C@@H]2CO)[C@H](N)[C@@H](O)[C@@H]1O [PCM-0095358] | 4.3% |  |
| Clc1ccc(Nc2nnc(Cc3ccncc3)c3ccccc23)cc1 [PCM-0086134] | -14.5% |  |
| CN(C)Cc1c[nH]c2ccccc12 [PCM-0091332] | -24.9% |  |
| COc1cc2c(Oc3ccc4[nH]c(C)cc4c3F)ncnc2cc1OCCCN1CCCC1 [PCM-0094913] | 33.8% |  |
| CN(C)C(=O)CCSC(SCCC(=O)O)c1cccc(/C=C/c2ccc3ccc(Cl)cc3n2)c1 (stereo not drawn) [PCM-0215726] | 10.8% |  |
| CO/N=C(\C(=O)N[C@@H]1C(=O)N2C(C(=O)O)=CCS[C@H]12)c1csc(N)n1 [PCM-0215091] | 7.8% |  |
| CC(=O)O[C@H]1C[C@@]2(C)[C@@H](C[C@@H](O)[C@H]3[C@@]4(C)CC[C@@H](O)[C@@H](C)[C@@H]4CC[C@@]32C)/C1=C(\CCC=C(C)C)C(=O)O [PCM-0214838] | 6.2% |  |
| COC(=O)[C@@H]1[C@H]2C[C@H]3c4[nH]c5ccccc5c4CCN3C[C@@H]2CC[C@@H]1O [PCM-0214658] | -21.8% |  |
| CCOC(=O)NC/C=C/c1ccc2ncnc(Nc3ccc(Oc4ccc(C)nc4)c(C)c3)c2c1 [PCM-0095019] | -15.9% |  |

| SMILES | inhibition at 10 µM [1] | inhibition at 10 µM (read-out: BTK inhibition (%)) |
| --- | --- | --- |
| CO[C@H]1C(=O)[C@]2(C)[C@@H](OC)C[C@H]3OC[C@@]3(OC(C)=O)[C@H]2[C@H](OC(=O)c2ccccc2)[C@]2(O)C[C@H](OC(=O)[C@H](O)[C@@H](NC(=O)OC(C)(C)C)c3ccccc3)C(C)=C1C2(C)C [PCM-0214715] | -14.8% |  |
| C#Cc1cccc(Nc2ncnc3cc(OCCOC)c(OCCOC)cc23)c1 [PCM-0085975] | 1.7% |  |
| CN1CCN(c2nc(C3=C(c4c[nH]c5ccccc45)C(=O)NC3=O)c3ccccc3n2)CC1 [PCM-0095375] | 57.9% |  |
| CC(=O)O[C@]1(C)CC[C@@]23C[C@@H]1C(C)(C)[C@@H]2CC[C@H]3C [PCM-0215054] | 10.9% |  |
| O=C(O)c1ccc(NC(=O)[C@H](Cc2ccc(O)cc2)NC(=O)c2ccccc2)cc1 [PCM-0215250] | -10.1% |  |
| CCN(C)S(=O)(=O)Nc1ccc(F)c(C(=O)c2c[nH]c3ncc(-c4cnc(C5CC5)nc4)cc23)c1F [PCM-0215639] | 75.9% |  |
| NCCC(O)(P(=O)(O)O)P(=O)(O)O [PCM-0094901] | -6.8% |  |
| N#Cc1ccc([C@H]2CCc3cncn32)c(F)c1 [PCM-0215764] | 6.2% |  |
| COC(=O)c1cc(OC)c(OC)c(OC)c1 [PCM-0215033] | -13.2% |  |
| COc1cc([C@@H]2c3cc4c(cc3[C@@H](O[C@@H]3O[C@@H]5CO[C@@H](C)O[C@H]5[C@H](O)[C@H]3O)[C@H]3COC(=O)[C@H]23)OCO4)cc(OC)c1O [PCM-0086140] | -2.8% |  |
| O=C(/C=C/c1ccc(O)c(O)c1)O[C@@H]1C[C@](O)(C(=O)O)C[C@@H](O)[C@H]1O [PCM-0087069] | -10.1% |  |
| Cc1cc(O)c(-c2ccc([C@@H](C)CN)cc2)c2c1[nH]c(=O)c1sccc12 [PCM-0215772] | 70.3% |  |
| C[C@@H]1CC(=O)Nc2cccc(-c3ccc4c(c3)c(-c3cnn(C)c3)nn4C)c2N1 [PCM-0215716] | 1.5% |  |
| C=CC(=O)Nc1cccc(Nc2nc(Nc3ccc(OCCOC)cc3)ncc2F)c1 [PCM-0095787] | 90.3% |  |
| CCOc1cc(C(C)(C)C)ccc1C1=N[C@@](C)(c2ccc(Cl)cc2)[C@@](C)(c2ccc(Cl)cc2)N1C(=O)N1CCN(CCCS(C)(=O)=O)CC1 [PCM-0215548] | 16.2% |  |
| CC(=O)Oc1cc(C)c(OC(C)=O)c2ccccc12 [PCM-0215056] | -25.7% |  |
| O=C1Cc2cc(CCN3CCN(c4nsc5ccccc45)CC3)c(Cl)cc2N1 [PCM-0065598] | 52.1% |  |
| Oc1ccc(OCc2ccccc2)cc1 [PCM-0086466] | 8.6% |  |
| CC(C)(CO)[C@@H](O)C(=O)NCCC(=O)NCCSSCCNC(=O)CCNC(=O)[C@H](O)C(C)(C)CO [PCM-0216020] | -28.9% |  |
| O=C1C[C@@H]2[C@@H](CO)[C@H](O)C[C@@H]2O1 [PCM-0216100] | -8.5% |  |
| CN(C)c1cccc(-c2c3c(=O)n(-c4ccccc4Cl)[nH]c3cc(=O)n2C)c1 [PCM-0215425] | -1.4% |  |
| Cn1cc(CNCC2CCN(c3ncc(C(=O)NO)cn3)CC2)c2ccccc21 [PCM-0095073] | -11.7% |  |
| C[C@@]1(CO)C[C@@H](O)C[C@@]2(C)[C@@H]3CC[C@](C)([C@@H](O)CO)C=C3CC[C@H]12 [PCM-0216530] | 20.8% |  |

| SMILES | inhibition at 10 µM [1] | inhibition at 10 µM (read-out: BTK inhibition (%)) |
| --- | --- | --- |
| O=S(=O)(O)CCS [PCM-0086246] | -3.1% |  |
| CC(C)NCC(O)c1ccccc1Cl (stereo not drawn) [PCM-0214757] | 10.9% |  |
| C[C@@H]1O[C@H]2O[C@H]3[C@@H](OC[C@H](O)[C@@H]3O)OC(=O)[C@]34CCC(C)(C)C[C@H]3C3=CC[C@H]5[C@@]6(C)C[C@H](O)[C@H](O[C@@H]7O[C@H](CO)[C@@H](O)[C@H](O)[C@H]7O[C@@H]7OC[C@H](OC(=O)C[C@](C)(O)CC(=O)O[C@@H]1[C@@H](O[C@@H]1OC[C@@H](O)[C@H](O)[C@H]1O)[C@H]2O)[C@H](O)[C@H]7O)[C@@](C)(CO)[C@@H]6CC[C@@]5(C)[C@]3(C)CC4 [PCM-0214951] | 6.2% |  |
| CCc1ccc(OCc2ccccc2C(=O)Nc2ccc3nc(C)cc(N)c3c2)cc1 [PCM-0095441] | 33.5% |  |
| COc1cc2c(cc1OC(C)C)[C@H](c1ccc(Cl)cc1)N(c1ccc(N(C)CC3CCC(N4CCN(C)C(=O)C4)CC3)cc1)C(=O)C2 (stereo partly drawn) [PCM-0215723] | 57.9% |  |
| CN1CCc2nc(C(=O)N[C@@H]3C[C@@H](C(=O)N(C)C)CC[C@@H]3NC(=O)C(=O)Nc3ccc(Cl)cn3)sc2C1 [PCM-0216277] | -4.6% |  |
| CCCCCCCCCCCCOC(=O)CS(=O)(=O)O [PCM-0215935] | -12.8% |  |
| CC[C@@H](C(N)=O)N1CCCC1=O [PCM-0064838] | 15.6% |  |
| C=C1/C(=C\C=C2/CCC[C@]3(C)[C@@H]([C@H](C)/C=C/[C@@H](O)C4CC4)CC[C@@H]23)C[C@@H](O)C[C@@H]1O [PCM-0214926] | 1.6% |  |
| C[C@H]1CC[C@@]2(O)C(C)(C)[C@@H]3CC[C@@]2(C)[C@H]1C3 [PCM-0215010] | 2.8% |  |
| CCOC(=O)[C@H](CCc1ccccc1)N[C@@H](C)C(=O)N1C(=O)N(C)C[C@H]1C(=O)O [PCM-0214860] | 7% |  |
| CCc1ccc(Cc2ccc3c(c2)[C@]2(OC3)O[C@H](CO)[C@@H](O)[C@H](O)[C@H]2O)cc1 [PCM-0215855] | 5.4% |  |
| CCOc1cc(CC(=O)N[C@@H](CC(C)C)c2ccccc2N2CCCCC2)ccc1C(=O)O [PCM-0086171] | 17.1% |  |
| CCOc1cc(C=O)ccc1OC(C)=O [PCM-0216281] | 4.6% |  |
| CN(C)c1ccc2c(c1)Sc1cc(N(C)C)ccc1N2 [PCM-0215668] | 72.6% |  |
| C[N+]1(C)CCC[C@H]1C(=O)[O-] [PCM-0214966] | 7.8% |  |
| CO[C@H]1C[C@H](O[C@H]2CC[C@]3(C)[C@H]4CC[C@]5(C)[C@@H](C6=CC(=O)OC6)CC[C@]5(O)[C@@H]4CC[C@]3(O)C2)O[C@H](C)[C@H]1O[C@@H]1O[C@H](CO)[C@@H](O)[C@H](O)[C@H]1O [PCM-0216449] |  | 11.6% |
| COC1=C(OC)C(=O)C(CCCCCCCCCCO)=C(C)C1=O [PCM-0085939] | -11% |  |
| N[C@@H]1CN(c2c(F)cc3c(=O)c(C(=O)O)cn([C@@H]4C[C@@H]4F)c3c2Cl)CC12CC2 [PCM-0095203] | -6.8% |  |
| NCC1OC(OC2C(N)CC(N)C(OC3OC(CO)C(O)C(N)C3O)C2O)C(N)CC1O (stereo not drawn) [PCM-0086125] | 21.3% |  |
| Nc1ncn([C@@H]2O[C@H](CO)[C@@H](O)[C@H]2O)c(=O)n1 [PCM-0064526] | -6.2% |  |
| O=C1CN(/N=C/C=C/c2ccc([N+](=O)[O-])o2)C(=O)N1 [PCM-0214924] | -7.8% |  |
| O=C(O)[C@H](O)Cc1ccc(O)c(O)c1 [PCM-0215761] | 7.7% |  |
